Reference: patent publication US9284333B2, “Fused pyrroledicarboxamides and their use as pharmaceuticals” (SANOFI, priority 2012, dated 2016)

Biological target: Human TASK-1 channels (Homo sapiens (Human), UniProt O14649)
Test: Determination of the activity on the TASK-1 channel in Xenopus oocytes (two-microelectrode voltage clamp)
Assay type: cell-based
Conditions: compound concentration 5 μM
Protocol: Determination of the activity on the TASK-1 channel in Xenopus oocytes
Human TASK-1 channels were expressed in Xenopus oocytes. For this purpose, oocytes were isolated from Xenopus laevis and defoliculated. Subsequently, TASK-1-encoding RNA synthesized in vitro was injected into the oocytes. After two days of TASK-1 protein expression, TASK-1 currents were measured by two-microelectrode voltage clamp. Data were acquired and analyzed using a TEC-10cx amplifier (NPI Electronic, Tamm, Germany) connected to an ITC-16 interface (Instrutech Corp., Long Island, USA) and Pulse software (HEKA Elektronik, Lambrecht, Germany). Oocytes were clamped to −90 mV and TASK-1 mediated currents were measured during 500 ms voltage pulses to 40 mV. Oocytes were continuously superfused with ND96 buffer containing 96 mM sodium chloride, 2 mM potassium chloride, 1.8 mM calcium chloride, 1 mM magnesium chloride, 5 mM 4-(2-hydroxyethyl)-piperazine-1-ethanesulfonic acid (HEPES; pH adjusted to 7.4 with sodium hydroxide). All experiments were performed at room temperature. Test compounds were consecutively added to the bath solution at rising concentrations. Compound effects were calculated as the percentage inhibition of TASK-1 control current before compound addition. IC50 values were obtained by fitting the data to the general dose-response equation.

Human TASK-1 channels, sequence (O14649 whole entry): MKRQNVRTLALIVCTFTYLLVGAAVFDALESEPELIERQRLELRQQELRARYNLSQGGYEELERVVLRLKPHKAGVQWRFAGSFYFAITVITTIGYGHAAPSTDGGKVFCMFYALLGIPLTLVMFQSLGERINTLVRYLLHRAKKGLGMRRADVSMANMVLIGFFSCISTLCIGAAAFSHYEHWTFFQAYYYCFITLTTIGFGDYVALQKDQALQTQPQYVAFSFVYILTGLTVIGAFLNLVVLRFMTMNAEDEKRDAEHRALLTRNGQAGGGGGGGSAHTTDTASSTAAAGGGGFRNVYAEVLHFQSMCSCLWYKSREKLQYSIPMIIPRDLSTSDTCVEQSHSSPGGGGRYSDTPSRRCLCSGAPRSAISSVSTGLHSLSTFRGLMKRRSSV

inhibition at 5 µM [%]	SMILES
90	C#CC1CCCN1C(=O)c1cc(C(=O)N[C@H](CC)c2ccccc2)c2n1CCOC2 (stereo partly drawn) [16fx, 6-(2-Ethynyl-pyrrolidine-1-carbonyl)-3,4-dihydro-1H-pyrrolo[2,1-c][1,4]oxazine-8-carboxylic acid ((R)-1-phenyl-propyl)-amide]
69	CC[C@@H](NC(=O)c1cc(C(=O)N2CCC[C@@H]2C)n2c1COCC2)c1cncc(Cl)c1 [16cj, 6-((S)-2-Methyl-pyrrolidine-1-carbonyl)-3,4-dihydro-1H-pyrrolo[2,1-c][1,4]oxazine-8-carboxylic acid [(R)-1-(5-chloro-pyridin-3-yl)-propyl]-amide]

Same assay, conditions: human TASK-1 expressed in Xenopus oocytes, room temperature; read-out: IC50 value for TASK-1 inhibition

SMILES	IC50 [nM]
CC[C@@H](NC(=O)c1cc(C(=O)N2CCCC2c2cc(C)no2)n2c1COCC2)c1ccccc1 (stereo partly drawn) [16eq, 6-[2-(3-Methyl-isoxazol-5-yl)-pyrrolidine-1-carbonyl]-3,4-dihydro-1H-pyrrolo[2,1-c][1,4]oxazine-8-carboxylic acid ((R)-1-phenyl-propyl)-amide]	480
C[C@@H](NC(=O)c1cc(C(=O)N[C@H](C)c2ncccn2)c2n1CCOC2)c1ccc(F)cc1 (racemic) [16dy, 3,4-Dihydro-1H-pyrrolo[2,1-c][1,4]oxazine-6,8-dicarboxylic acid 6-{[(R)-1-(4-fluoro-phenyl)-ethyl]-amide} 8-[((R)-1-pyrimidin-2-yl-ethyl)-amide]]	1500
CC(NC(=O)c1cc(C(=O)N[C@@H](c2ccc(F)cc2)C(C)C)n2c1COCC2)c1cnccn1 (single isomer, unassigned) [16lp]	550
CC[C@@H](NC(=O)c1cc(C(=O)N2CCC[C@@H]2C)n2c1COCC2)c1cccc(OC)n1 [16z, 6-((S)-2-Methyl-pyrrolidine-1-carbonyl)-3,4-dihydro-1H-pyrrolo[2,1-c][1,4]oxazine-8-carboxylic acid [(R)-1-(6-methoxy-pyridin-2-yl)-propyl]-amide]	270
CC[C@@H](NC(=O)c1cc(C(=O)N2CCC[C@@H]2C)n2c1COCC2)c1ccc(Cl)nc1 [16ar, 6-((S)-2-Methyl-pyrrolidine-1-carbonyl)-3,4-dihydro-1H-pyrrolo[2,1-c][1,4]oxazine-8-carboxylic acid [(R)-1-(6-chloro-pyridin-3-yl)-propyl]-amide]	440
O=C(N[C@@H](c1ccc(F)cc1)C1CC1)c1cc(C(=O)N2CCCC2)n2c1COCC2 [16dg, 6-(Pyrrolidine-1-carbonyl)-3,4-dihydro-1H-pyrrolo[2,1-c][1,4]oxazine-8-carboxylic acid [(R)-cyclopropyl-(4-fluoro-phenyl)-methyl]-amide]	300

Results, then the compound that gave them:

IC50 [nM]	SMILES
120	CC[C@@H](NC(=O)c1cc(C(=O)NCC2CCCC2)n2c1CCCC2)c1ccccc1 [16my, 5,6,7,8-Tetrahydro-indolizine-1,3-dicarboxylic acid 3-cyclopentylmethyl-amide 1-[((R)-1-phenyl-propyl)-amide]]
130	CC[C@@H](NC(=O)c1cc(C(=O)NC2CCCCC2)n2c1CCCC2)c1ccccc1 [16ml, 5,6,7,8-Tetrahydro-indolizine-1,3-dicarboxylic acid 3-cyclohexylamide 1-[((R)-1-phenyl-propyl)-amide]]
190	CC[C@@H](NC(=O)c1cc(C(=O)N2CCC[C@@H]2C)n2c1COCC2)c1ccc(Cl)cc1 [16pg, 6-((S)-2-Methyl-pyrrolidine-1-carbonyl)-3,4-dihydro-1H-pyrrolo[2,1-c][1,4]oxazine-8-carboxylic acid [(R)-1-(4-chloro-phenyl)-propyl]-amide]
90	CC[C@@H](NC(=O)c1cc(C(=O)N2CCCC2)n2c1COCC2)c1ccc(F)cc1Cl [16db, 6-(Pyrrolidine-1-carbonyl)-3,4-dihydro-1H-pyrrolo[2,1-c][1,4]oxazine-8-carboxylic acid [(R)-1-(2-chloro-4-fluoro-phenyl)-propyl]-amide]
48	CC[C@@H](NC(=O)c1cc(C(=O)N[C@H]2CCc3ccccc32)n2c1COCC2)c1ccccc1 [16gj, 3,4-Dihydro-1H-pyrrolo[2,1-c][1,4]oxazine-6,8-dicarboxylic acid 6-(S)-indan-1-ylamide 8-[((R)-1-phenyl-propyl)-amide]]
